Source: paper PMC8999917, “Structure–Activity Relationship of Synthetic Ginkgolic Acid Analogs for Treating Type 2 Diabetes by PTPN9 Inhibition” (International Journal of Molecular Sciences, 2022)

Assays:
GPR120 = target: T1, GPR120 (Homo sapiens, UniProt Q5NUL3); test: GPR120 SRE-Luc reporter gene assay in CHO cells; format: cell-based; settings: 50 μM
T1 construct: host or cells: CHO cells
T1 sequence (Q5NUL3 1-361): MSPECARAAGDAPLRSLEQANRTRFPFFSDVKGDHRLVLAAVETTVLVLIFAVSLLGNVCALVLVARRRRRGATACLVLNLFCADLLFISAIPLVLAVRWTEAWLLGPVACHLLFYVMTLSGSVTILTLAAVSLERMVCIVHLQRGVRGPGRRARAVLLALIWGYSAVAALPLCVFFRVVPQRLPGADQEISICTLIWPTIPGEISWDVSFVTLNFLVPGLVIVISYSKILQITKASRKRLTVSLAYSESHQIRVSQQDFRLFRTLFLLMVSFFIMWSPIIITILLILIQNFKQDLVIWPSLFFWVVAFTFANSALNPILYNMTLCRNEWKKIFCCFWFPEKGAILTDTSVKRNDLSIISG
From the text: (§1) Glucose uptake is regulated by three major mechanisms. First, through the activation of the Akt pathway, which promotes GLUT4 translocation via the activation of the signaling cascade involving the insulin receptor substrate (IRS) family and PI3 kinase through […] or G-protein-coupled receptors (GPCRs); second, through the upregulation of AMPK phosphorylation, which increases glucose uptake by inducing GLUT4 translocation to the plasma membrane; third, through the promotion of GLUT4 expression by PPARγ ligands. […] However, these compounds may induce GLUT4 expression and improve insulin sensitivity in the treated cells through their interactions with GPCR and/or PPARγ. Among GPCRs highly expressed in 3T3-L1 adipocytes and C2C12 muscle cells, GPR120 is the receptor that is most closely associated with glucose uptake. […] This was performed following a previously described method. In brief, CHO cells were plated to 96-well white plates (REF3610, Corning Life Sciences, NY, USA) in DMEM (HyClone^TM, Cytivalifescience, Seoul, Korea) supplemented with 10% FBS and 1% penicillin at a density of 1.5 × 10^4 cells/well. […] After incubation for another 24 h, luciferase activity was measured using the dual-luciferase assay system (Promega Korea, Seoul, Korea) according to the manufacturer’s instructions. […]

PPARγ = target: T2, PPARγ (Homo sapiens, UniProt P37231); test: PPARγ PPRE-Luc reporter gene assay in CHO cells; format: cell-based; settings: 50 μM
T2 construct: expressed in transfected cells; host or cells: CHO cells
T2 sequence (P37231 1-505): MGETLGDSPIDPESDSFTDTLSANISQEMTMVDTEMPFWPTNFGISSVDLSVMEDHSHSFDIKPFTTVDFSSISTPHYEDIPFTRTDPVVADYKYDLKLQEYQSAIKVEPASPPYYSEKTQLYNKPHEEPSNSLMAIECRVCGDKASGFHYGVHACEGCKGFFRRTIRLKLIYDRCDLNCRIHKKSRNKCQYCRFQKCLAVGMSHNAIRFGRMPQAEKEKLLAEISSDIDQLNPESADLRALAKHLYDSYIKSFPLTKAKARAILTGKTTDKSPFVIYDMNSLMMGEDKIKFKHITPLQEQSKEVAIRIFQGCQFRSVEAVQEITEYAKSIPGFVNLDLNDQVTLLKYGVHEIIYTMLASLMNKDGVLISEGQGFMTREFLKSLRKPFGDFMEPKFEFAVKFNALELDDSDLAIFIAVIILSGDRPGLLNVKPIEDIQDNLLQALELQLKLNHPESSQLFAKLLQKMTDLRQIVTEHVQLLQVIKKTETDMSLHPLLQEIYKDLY
From the text: as §1

Akt phosphorylation = test: Western blot of Akt phosphorylation in C2C12 myotubes; format: cell-based, mouse
From the text: To further investigate the mechanism of action of 1e, we evaluated its effects on AMPK and AKT phosphorylation in C2C12 myotubes. […] In line with the results obtained in 3T3-L1 cells, in the absence of insulin, 1e had no effects on basal p-Akt expression levels (Figure 6A). Since insulin plays an important role in regulating glucose metabolism through the redistribution of GLUT4 from intracellular vesicles to the cell surface, it is important to describe the interaction between 1e and insulin in the Akt pathway. […] Next, we evaluated the protective effects of 1e against PA-induced insulin resistance in C2C12 myotubes. To generate an insulin resistance model, C2C12 myotubes were treated with 250 µM PA in a serum-free medium for 16 h. Akt phosphorylation levels in PA-treated C2C12 cells decreased by 50% compared to levels in normal C2C12 cells (Figure 6C). Furthermore, in the presence of insulin and GA, Akt phosphorylation levels decreased only by 30% compared to levels in normal cells. […] The expression levels of glucose uptake-related proteins were determined via Western blotting, as previously described. […] Secondary antibodies were added to the membranes at a concentration of 1:2000 for 1 h at room temperature, and immunoreactive bands were detected via ECL (GE Healthcare Korea Co., Ltd., Incheon, Korea). […]

Row | GPR120 transcriptional activity (SRE-Luc) (GPR120) | PPARγ transcriptional activity (PPRE-Luc) (PPARγ) | Structure (SMILES) | Akt phosphorylation on co-treatment with insulin (Akt phosphorylation; 100 nM insulin) | basal p-Akt expression levels (Akt phosphorylation; absence of insulin)
1 | No significant change | No significant change | CCCCCCCCCCCCCCCOc1cccc(O)c1C(=O)O [Compound 1f] | – | –
2 | No significant change | No significant change | CCCCCCCCCCCCCOc1cccc(O)c1C(=O)O [Compound 1e] | synergistic Akt phosphorylation-improving effects with insulin | no effects
